According to patent US20250346606A1, “CAMPTOTHECIN COMPOUND, PREPARATION METHOD THEREFOR, AND APPLICATION THEREOF” (SICHUAN KELUN-BIOTECH BIOPHARMACEUTICAL CO., LTD., priority 2021, published 2025):
Where two headings read alike, the source gives them in different places.

How the values were obtained:
Format in all cases: cell-based, Human
HT29 cells = test: Inhibitory effect of compounds on HT29 cell proliferation; conditions: read-out: IC50, inhibitory activity on HT29 cell proliferation
In short: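 Adherent HT29 cells incubated with diluted compounds for 72 h; viability read by luminescence (Cell Counting-Lite 2.0, 10 min). Inhibition calculated against cell-free background and vehicle-treated cells; IC50 from four-parameter curve fit.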

A549 cells = test: Inhibitory effect of compounds on A549 cell proliferation; conditions: read-out: IC50, inhibitory activity on A549 cell proliferation
Method: (1) Cell plating: First, tumor cells A549 were cultured in the corresponding medium, then digested with trypsin, centrifuged and resuspended, and counted, and the cells were adjusted to an appropriate concentration for plating.
(§1) Co-incubation of the compound of the present disclosure and tumor cells: after the cells adhered to the wall, the medium was removed, and the diluted bioactive molecule (the compound of the present disclosure) was added to the wells of the above plate, and incubated for 72 h.
(§2) In vitro cell activity detection: After the incubation, 50 μL of Cell Counting-Lite™ 2.0 reagent (Vazyme/Novazyme) was added to each well, shaken and mixed well in the dark, reacted for 10 minutes, and then the detection was carried out with a microplate reader (manufacturer: BMG, Model: PHERAStar-FS) for reading. The background RLU was obtained by using cell-free medium (with Cell Counting-Lite™), and the vehicle RLU was obtained by using cell-containing medium (with Cell Counting-Lite™). Cell inhibition rate=1−(sample RLU−background RLU)/(solvent RLU−background RLU)×100%. According to the four-parameter model fitting curve, the half maximal inhibitory concentration (IC50) of the compound was calculated, and the detection results were shown in Table 4.

HCC1806 cells = test: Inhibitory effect of compounds on HCC1806 cell proliferation
Method: (1) Cell plating: First, tumor cells HCC1806 were cultured in corresponding medium, then digested with trypsin, centrifuged, resuspended, and counted, and the cells were adjusted to an appropriate concentration for plating.
as §1
as §2, with “viability” for “activity”, “6.” for “4.”

SKOV-3 cells = test: Inhibitory effect of compounds on SKOV-3 cell proliferation; conditions: read-out: IC50, inhibitory activity on SKOV-3 cell proliferation
Method: (1) Cell plating: First, tumor cells SKOV-3 were cultured in corresponding medium, then digested with trypsin, centrifuged, resuspended, and counted, and the cells were adjusted to an appropriate concentration for plating.
as §1
as §2, with “viability” for “activity”, “8.” for “4.”

NCI-H358 cells = test: Inhibitory effect of compounds on NCI-H358 cell proliferation
In short: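 Adherent NCI-H358 cells were exposed to compound for 72 h, then viability was read by luminescence (Cell Counting-Lite 2.0). Inhibition calculated from RLU relative to cell-free background and vehicle wells; IC50 from a four-parameter fit.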

NCI-N87 cells = test: Inhibitory effect of compounds on NCI-N87 cell proliferation
In short: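 Adherent NCI-N87 cells were exposed to compound dilutions for 72 h. Viability measured by Cell Counting-Lite 2.0 luminescence, with inhibition calculated against vehicle and cell-free background RLU. IC50 from four-parameter fit.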

HCC70 cells = test: Inhibitory effect of compounds on HCC70 cell proliferation; conditions: read-out: IC50, inhibitory activity on HCC70 cell proliferation
Method: (1) Cell plating: First, tumor cells HCC70 were cultured in corresponding medium, then digested with trypsin, centrifuged, resuspended, and counted, and the cells were adjusted to an appropriate concentration for plating.
as §1
as §2, with “viability” for “activity”, “16.” for “4.”

MDA-MB-231 cells = test: Inhibitory effect of compounds on MDA-MB-231 cell proliferation; conditions: read-out: IC50, inhibitory activity on MDA-MB-231 cell proliferation
Method: (1) Cell plating: First, tumor cells MDA-MB-231 were cultured in corresponding medium, then digested with trypsin, centrifuged, resuspended, and counted, and the cells were adjusted to an appropriate concentration for plating.
as §1
as §2, with “viability” for “activity”, “18.” for “4.”

Hela cells = test: Inhibitory effect of compounds on Hela cell proliferation; conditions: read-out: IC50, inhibitory activity on Hela cell proliferation
Method: (1) Cell plating: First, tumor cells Hela were cultured in corresponding medium, then digested with trypsin, centrifuged, resuspended, and counted, and the cells were adjusted to an appropriate concentration for plating.
as §1
as §2, with “viability” for “activity”, “14.” for “4.”

Jeko-1 cells = test: Inhibitory effect of compounds on Jeko-1 cell proliferation; conditions: Jeko-1 human mantle cell lymphoma cells, 72 h incubation, Cell Counting-Lite 2.0; read-out: IC50, inhibitory activity on Jeko-1 cell proliferation
Method: (1) Cell plating: First, tumor cells Jeko-1 were cultured in corresponding medium, then digested with trypsin, centrifuged, resuspended, and counted, and the cells were adjusted to an appropriate concentration for plating.
as §1
as §2, with “viability” for “activity”, “20.” for “4.”

[1] = Homo sapiens, HCC1806, 72 h, read-out: IC50, inhibitory activity on HCC1806 cell proliferation, HCC1806 human breast squamous carcinoma cells, 72 h incubation, Cell Counting-Lite 2.0
[2] = Homo sapiens, NCI-H358, 72 h, read-out: IC50, inhibitory activity on NCI-H358 cell proliferation, NCI-H358 human non-small cell lung cancer cells, 72 h incubation, Cell Counting-Lite 2.0
[3] = HT-29, HT29 human colon cancer cells, 72 h incubation, Cell Counting-Lite 2.0
[4] = NCI-N87 human gastric cancer cells, 72 h incubation, Cell Counting-Lite 2.0, read-out: IC50, inhibitory activity on NCI-N87 cell proliferation

CC[C@@]1(O)C(=O)OCc2c1cc1n(c2=O)Cc2c-1nc1cc(Cl)c(C)c3c1c2[C@@H](NC(=O)[C@H](O)C1CC1)CC3 [Example 5 (2-12-C), (2R)—N-((1S,9S)-5-chloro-9-ethyl-9-hydroxy-4-methyl-10,13-dioxo-2,3,9,10,13,15-hexahydro-1H,12H-benzo[de]pyrano[3′,4′:6,7]indolizino[1,2-b]quinolin-1-yl)-2-cyclopropyl-2-hydroxyacetamide]
IC50 (HT29 cells; Homo sapiens, HT-29, 72 h): 1.49 nM
IC50 (A549 cells; Homo sapiens, A549, 72 h): 6.64 nM
IC50 (HCC1806 cells; [1]): 2.08 nM
IC50 (SKOV-3 cells; Homo sapiens, SK-OV-3, 72 h): 6.52 nM
IC50 (NCI-H358 cells; [2]): 23.1 nM
IC50 (NCI-N87 cells; Homo sapiens, NCI-N87, 72 h, read-out: IC50, inhibitory activity on NCI-N87 cell proliferation, NCI-N87 human gastric cancer cells, 72 h incubation, Cell Counting-Lite 2.0): 4.51 nM
IC50 (HCC70 cells; Homo sapiens, HCC70, 72 h): 211 nM

CC[C@@]1(O)C(=O)OCc2c1cc1n(c2=O)Cc2c-1nc1cc(F)c(C)c3c1c2[C@@](C)(N)CC3 (single isomer, unassigned) [Example 12 (5-13-A)]
IC50 (HT29 cells; [3]): 0.88 nM
IC50 (HCC1806 cells; HCC1806 human breast squamous carcinoma cells, 72 h incubation, Cell Counting-Lite 2.0, read-out: IC50, inhibitory activity on HCC1806 cell proliferation): 0.96 nM
IC50 (SKOV-3 cells; SK-OV-3, SKOV-3 human ovarian cancer cells, 72 h incubation, Cell Counting-Lite 2.0): 2.09 nM
IC50 (NCI-H358 cells; NCI-H358 human non-small cell lung cancer cells, 72 h incubation, Cell Counting-Lite 2.0, read-out: IC50, inhibitory activity on NCI-H358 cell proliferation): 7.01 nM
IC50 (NCI-N87 cells; [4]): 2.33 nM
IC50 (HCC70 cells; HCC70 human breast cancer cells, 72 h incubation, Cell Counting-Lite 2.0): 36.6 nM
IC50 (MDA-MB-231 cells; MDA-MB-231 human breast cancer cells, 72 h incubation, Cell Counting-Lite 2.0): 333 nM

CC[C@@]1(O)C(=O)OCc2c1cc1n(c2=O)Cc2c-1nc1cc(Cl)c(C)c3c1c2[C@H](NC[C@H](C)O)CC3 [Example 4 (2-7-B), (2S)—N-((1R,9S)-5-chloro-9-ethyl-9-hydroxy-4-methyl-10,13-dioxo-2,3,9,10,13,15-hexahydro-1H,12H-benzo[de]pyrano[3′,4′:6,7]indolizino[1,2-b]quinolin-1-yl)-2-hydroxypropylamine]
IC50 (HT29 cells; Homo sapiens, HT-29, 72 h): 5.44 nM
IC50 (A549 cells; Homo sapiens, A549, 72 h): 16.4 nM
IC50 (SKOV-3 cells; Homo sapiens, SK-OV-3, 72 h): 9.47 nM
IC50 (NCI-H358 cells; [2]): 51.1 nM
IC50 (HCC70 cells; Homo sapiens, HCC70, 72 h): 192 nM

CC[C@@]1(O)C(=O)OCc2c1cc1n(c2=O)Cc2c-1nc1cc(Cl)c(C)c3c1c2[C@@H](NC(=O)CO)CC3 [Example 3 (2-1-A), N-((1S,9S)-5-chloro-9-ethyl-9-hydroxy-4-methyl-10,13-dioxo-2,3,9,10,13,15-hexahydro-1H,12H-benzo[de]pyrano[3′,4′:6,7]indolizino[1,2-b]quinolin-1-yl)-2-hydroxyacetamide]
IC50 (HT29 cells; Homo sapiens, HT-29, 72 h): 5.03 nM
IC50 (HCC1806 cells; [1]): 1.43 nM
IC50 (SKOV-3 cells; Homo sapiens, SK-OV-3, 72 h): 7.12 nM
IC50 (NCI-H358 cells; [2]): 68.6 nM
IC50 (Hela cells; Homo sapiens, HeLa, 72 h): 17 nM
IC50 (MDA-MB-231 cells; Homo sapiens, MDA-MB-231, 72 h): 300 nM

CC[C@@]1(O)C(=O)OCc2c1cc1n(c2=O)Cc2c-1nc1cc(F)c(C)cc1c2CNC(=O)C1(O)CC1 [Example 11 (4-10), (S)—N-((4-ethyl-8-fluoro-4-hydroxy-9-methyl-3,14-dioxo-3,4,12,14-tetrahydro-1H-pyrano[3′,4′:6,7]indolizino[1,2-b]quinolin-11-yl)methyl)-1-hydroxycyclopropane-carboxamide]
IC50 (HT29 cells; [3]): 0.52 nM
IC50 (A549 cells; A549 human lung cancer cells, 72 h incubation, Cell Counting-Lite 2.0): 68.5 nM
IC50 (NCI-N87 cells; [4]): 2.29 nM
IC50 (Hela cells; Hela human cervical cancer cells, 72 h incubation, Cell Counting-Lite 2.0): 3.04 nM
IC50 (Jeko-1 cells): 0.45 nM
